# Where two headings read alike, the source gives them in different places.
# Legend:
# dogs = settings: cited from earlier work
# renal tubular excretion = settings: canines, effect plateaus at this dose; cited from earlier work
# MDCK cells [1] = test: ATP depletion in MDCK cells (CellTiter Glo assay); assay type: cell-based, canine
# Description: TTA concentration groups were compared to media alone (Neg.) using one-way ANOVA followed by a Dunnett's post-hoc test. (n=3/group). * p<0.05; ** p<0.005; *** p<0.001; **** p<0.0001.
# 500 μM probenecid (PBD) protected MDCK cells from 25 mM and 50 mM TTA-induced ATP depletion at 12 & 72 h, assessed using a CellTiter Glo® assay. Groups were compared using one-way ANOVA followed by a Tukey's post-hoc test. (n=3); ***p<0.001, **** p<0.0001 compared to media; $p<0.05 compared to 25 or 50 mM TTA alone.
# ATP depletion was determined in MDCK cells as another measure of cytotoxicity of TTA. The results shown in FIG. 3 indicate that ATP depletion was both time-and dose-dependent. In FIG. 4, it can be observed that dose-response curves were obtained for TTA-induced ATP depletion, and the cells became more sensitive at each increasing dose, and with increasing time of exposure to TTA. This established the MDCK cell culture model as a valid predictor of TTA-induced renal pathology in canine kidney in vitro.
# MDCK cells [2] = test: Probenecid prevention of tartaric acid induced LDH release in MDCK cells
# Description: When conducting experiments with probenecid (Sigma Aldrich, St. Louis, MO), a stock solution of 2 mmol/L in complete media was made at pH 7.4, then mixed with either complete media or 100 mmol/L tartaric acid to yield both solutions of 1 mmol/L and 500 μmol/L and solutions of 1 mmol/L probenecid+50 mmol/L potassium bitartrate, as well as 500 μmol/L+50 mmol/L potassium bitartrate. MDCK cells were treated and allowed to incubate for 72 hours.
# (§1) Absorbance was read at 450 nm.
# As TTA is a common, dietary dicarboxylic acid, it is believed to be renally excreted via organic anion-handling transporters. Therefore, to assess the role of OAT-mediated TTA transport, MDCK cells were exposed to 50 mM tartaric acid alone or in combination with 1 mM or 0.5 mM probenecid; a known OAT-1 inhibitor.
# [3] = system: MDCK cells transfected with human OAT-4; test: LDH release in hOAT-4 transfected MDCK cells; assay type: cell-based, canine; settings: 50 mM TTA, 72 h
# Description: In order to assess the role that OAT transporters may play in tartaric acid induced nephrotoxicity, MDCK cells were transfected with human OAT-4 and treated with 50 mmol/L of potassium bitartrate. Human (h)OAT-4 cDNA (GenScript, Piscataway, NJ) was purchased and transformed using E. coli (New England Biolabs, Ipswich, MA) to produce higher amounts of cDNA to be used in transfection. E. coli was transformed per New England Biolab's protocol. Briefly, E. coli was thawed, plasmid cDNA was added, and then mixed with manufacturer's SOC solution. The mixture was allowed to incubate at 37° C. for 60 minutes, and was then spread on LB agar ampicillin-100 plates (Sigma Aldrich, St. Louis, MO) and allowed to incubate for 24 hours at 37° C. Colonies were then collected, placed into a solution of LB […] ampicillin-100 broth, and incubated overnight.
# Human OAT-4 plasmid preparation with the amplified E. coli was completed using the PureYield Plasmid Miniprep System (Promega, Madison, WI) following manufacturers protocol. Briefly, 4 mL of culture was collected and centrifuged. The supernatant was removed, and the cell pellet was resuspended in 600 μL 1xPBS. […] The concentration of the elucidated cDNA was then measured using a NanoDrop spectrophotometer (yielding cDNA ranging from 264.8 to 762.8 ng/uL). […]
# as §1
# MDCK cells [4] = system: MDCK cells
# Description: MDCK cells were maintained in EMEM media supplemented with 10% Fetal Bovine Serum and 1% streptomycin. […] Both cell lines were incubated at 37° C. and 5% CO2 until confluency.
# For experiments, both cell lines were incubated in triplicate with an endpoint of 72 hours. Treatment concentrations were made using a stock solution of 100 mmol/L potassium bitartrate in complete media. Final treatment concentrations of 5, 10, 25, 50, 75, and 100 mmol/L were reached via serial dilution. To mimic physiological pH of 7.4, 10N NaOH and 10M HCl were used. A positive control of 0.005% hydrogen peroxide was also used.
# Release of lactate dehydrogenase (LDH) from the cytosol in response to plasma membrane damage is a common measure of necrotic cell death and was measured utilizing the LDH-Cytotoxicity assay kit according to the manufacturer's protocol (BioVision, Milpitas, CA). Briefly, media from treated MDCK or HK-2 cells was removed and samples placed into a 96 well plate in duplicate. A mixture of WST kit reagent and buffer in a 25:1 ratio was then added to each well. The plate was covered and allowed to incubate at room temperature for 30 minutes. Absorbance was read at 450 nm. To normalize for potential cell confluency differences, cells were solubilized with 0.05% Triton-X, and cellular protein was analyzed using the bicinchoninic acid (BCA) method.
# HK-2 cells = test: LDH release cytotoxicity of tartaric acid in HK-2 cells; assay type: cell-based, human
# Source text: as §1
# canines = settings: grape ingestion, tartaric acid equivalent; cited from earlier work
smiles,measurement,setting,value
"CCCN(CCC)S(=O)(=O)c1ccc(C(=O)O)cc1 [probenecid, 4-(dipropylsulfamoyl)benzoic acid]",LD50,dogs; IV,270 mg/kg
same,therapeutic index,dogs,high
same,oral dose enough to completely suppress renal tubular excretion,renal tubular excretion,6 mg/kg
same,protection from TTA-induced ATP depletion,"MDCK cells [1]; 500 μM probenecid, 25 mM and 50 mM TTA, 12 & 72 h",protected
same,prevention of TTA-induced cytotoxicity,MDCK cells [2]; 500 μM and 1 mM probenecid,completely prevented
same,LDH release,"MDCK cells [2]; 0.5 mM probenecid + 50 mM TTA, 72 h",1.658
same,LDH release,"MDCK cells [2]; 1 mM probenecid + 50 mM TTA, 72 h",1.518
same,cell death by probenecid alone,"MDCK cells [2]; probenecid alone at 0.5 mM or 1 mM, 72 h",did not induce significant cell death
"O=C(O)C(O)C(O)C(=O)O (stereo not drawn) [TTA, tartaric acid]",LDH release,[3],1.213
same,ATP depletion,MDCK cells [1]; function of time and dose of TTA exposure,induced significant ATP depletion
same,LDH release,"MDCK cells [4]; MDCK cells, 10 mM, 72 h, pH 7.4",1.769
same,LDH release,"MDCK cells [4]; MDCK cells, 25 mM, 72 h, pH 7.4",1.472
same,LDH release,"MDCK cells [4]; MDCK cells, 50 mM, 72 h, pH 7.4",1.646
same,LDH release,"MDCK cells [4]; MDCK cells, 75 mM, 72 h, pH 7.4",2.540
same,LDH release,"MDCK cells [4]; MDCK cells, 100 mM, 72 h, pH 7.4",1.778
same,lowest concentration with significant increase in TTA-induced cytotoxicity,"MDCK cells [4]; MDCK cells, 72 h of exposure, vs controls",10 mmol/L
same,LDH release,"MDCK cells [4]; non-transfected MDCK cells, 50 mM TTA, 72 h (transfection experiment)",2.807
same,LDH release,"HK-2 cells; HK-2 cells, 72 h, pH 7.4, 5-100 mmol/L, vs negative control",no statistically significant increase in LDH release
same,"TTA-induced LDH release, HK-2 vs. MDCK cells","HK-2 cells; same exposure concentrations across species, two-way ANOVA",no significant difference
same,ingested dose (as tartaric acid) resulting in significant nephrotoxicity,canines,196 to 1484 mg/kg
same,LDH release,"MDCK cells [2]; 50 mM TTA alone, 72 h (probenecid experiment)",4.302

# From patent US20260165990A1, “Treatment of Tartaric Acid Toxicity in Dogs with Probenecid” (priority 2022, published 2026)
